Reference: patent US4626533A, “7-(2-thienylacetamido)-3-acylaminomethyl-cephalosporins” (Biogal Gyogyszergyar, priority 1983, dated 1986)

System: Gram-negative strains
Test: MIC determination, Gram-negative strains
Assay type: cell-based
Conditions: range over Gram-negative strains
Protocol: The examinations were carried out by using the bacteria strains listed hereinbelow: Gram-negative strains E. coli 35034 Klebsiella 52001 Klebsiella ATCC 1200 S. hartford 10063 P. mirabilis 60012 P. morganii 63002 P. rettgeri 65002 P. inconstans 67001 P. aeruginosa ATCC 27853

MIC | SMILES
> 100 µg/mL | CC(=O)NCC1=C(C(=O)O)N2C(=O)C(NC(=O)CSc3nnc(-c4ccccc4)o3)[C@H]2SC1 (stereo partly drawn) [Example 8, 7-(2-phenyl-1,3,4-oxadiazole-5-ylthio)acetylamino-3-acetylaminomethylceph-3-em-4-carboxylic acid]
> 100 µg/mL | Cn1nnnc1SCC(=O)NC1C(=O)N2C(C(=O)O)=C(CNC(=O)c3c(Cl)cccc3Cl)CSC12 (stereo not drawn) [Example 14, 7-(1-methyl-1H-tetrazole-5-ylthio)acetamido-3-(2,6-dichlorobenzamino)methylceph-3-em-4-carboxylic acid]
> 100 µg/mL | O=C(CSc1nnc(-c2ccccc2)o1)NC1C(=O)N2C(C(=O)O)=C(CNC(=O)c3c(Cl)cccc3Cl)CS[C@H]12 (stereo partly drawn) [Example 15, 7-(2-phenyl-1,3,4-oxadiazole-5-ylthio)acetamido-3-(2,6-dichlorobenzoylamino)methylceph-3-em-4-carboxylic acid]
